# Measurements reported in patent US20240327412A1, “FACTOR XIIA INHIBITORS” (KALVISTA PHARMACEUTICALS LIMITED, priority 2021, published 2024).
# Target: T1, Human Factor XIIa (Homo sapiens, UniProt P00748)
# T1 construct: Proteolytic cleavage of FXII to heavy and light chains of FXIIa dramatically increases catalytic activity; purchased Enzyme Research Laboratories
# T1 sequence (P00748 373-615 limits assumed): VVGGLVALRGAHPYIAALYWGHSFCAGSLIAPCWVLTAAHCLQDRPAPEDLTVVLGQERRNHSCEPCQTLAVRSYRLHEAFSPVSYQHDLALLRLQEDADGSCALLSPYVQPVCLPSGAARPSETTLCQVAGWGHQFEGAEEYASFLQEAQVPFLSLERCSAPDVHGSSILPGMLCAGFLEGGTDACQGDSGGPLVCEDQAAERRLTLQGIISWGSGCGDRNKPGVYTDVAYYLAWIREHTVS
# T1 sequence (P00748 20-372 partner limits assumed): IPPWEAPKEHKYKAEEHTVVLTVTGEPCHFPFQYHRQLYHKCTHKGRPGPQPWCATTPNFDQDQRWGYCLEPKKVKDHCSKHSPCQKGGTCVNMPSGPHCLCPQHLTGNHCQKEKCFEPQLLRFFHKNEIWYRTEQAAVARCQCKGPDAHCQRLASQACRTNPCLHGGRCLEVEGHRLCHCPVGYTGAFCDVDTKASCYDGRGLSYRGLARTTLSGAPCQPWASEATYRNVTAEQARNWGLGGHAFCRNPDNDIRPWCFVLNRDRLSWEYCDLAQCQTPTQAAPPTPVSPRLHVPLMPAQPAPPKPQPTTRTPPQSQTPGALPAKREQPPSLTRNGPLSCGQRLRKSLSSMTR
# Assay: Determination of FXIIa inhibition (fluorogenic substrate H-DPro-Phe-Arg-AFC, IC50 assay)
# Assay type: biochemical
# Conditions: substrate at Km concentration, 25° C.; category scale; read-out: Human FXII IC50 (nm)
# Procedure: In vitro inhibition of Factor XIIa was determined using an IC50 assay based on standard literature methods (see e.g Baeriswyl et al., ACS Chem. Biol., 2015, 10 (8) 1861; Bouckaert et al., European Journal of Medicinal Chemistry 110 (2016) 181). Human Factor XIIa (Enzyme Research Laboratories) was incubated at 25° C. with the fluorogenic substrate H-DPro-Phe-Arg-AFC (Peptide Protein Science) and various concentrations of the test compound. Protease activity was measured by monitoring the accumulation of liberated fluorescence from the substrate over 5 min at 25° C. The linear rate of fluorescence increase per minute was expressed as percentage (%) activity. The Km for the cleavage of the substrate by FXIIa was determined by standard transformation of the Michaelis-Menten equation. The compound inhibitor assays were performed at substrate Km concentration. IC50 values were calculated as the concentration of inhibitor giving 50% inhibition (IC50) of the uninhibited enzyme activity (100%).
row,IC50 [nM],SMILES
1,3000 to 10000,"Nc1nccc2c(NCC34CC(COc5ccn6ncnc6c5)(C3)C4)cccc12 [Example 1110, N5-((3-(([1,2,4]triazolo[1,5-a]pyridin-7-yloxy)methyl)bicyclo[1.1.1]pentan-1-yl)methyl)isoquinoline-1,5-diamine]"
2,10000 to 40000,"Nc1nccc2c(NCC34CC(NC(=O)c5ccc6nnc(C(F)F)n6c5)(C3)C4)cccc12 [Example 1132, N-(3-(((1-aminoisoquinolin-5-yl)amino)methyl)bicyclo[1.1.1]pentan-1-yl)-3-(difluoromethyl)-[1,2,4]triazolo[4,3-a]pyridine-6-carboxamide]"
3,100 to 300,"Nc1nccc2c(NCC34CC(COc5ccc6c(c5)CNC6=O)(C3)C4)cccc12 [Example 1133, 5-((3-(((1-aminoisoquinolin-5-yl)amino)methyl)bicyclo[1.1.1]pentan-1-yl)methoxy)isoindolin-1-one]"
4,100 to 300,"Cc1cc(OCC23CC(CNc4cccc5c(N)nccc45)(C2)C3)cc(=O)n1C [Example 1134, 4-((3-(((1-aminoisoquinolin-5-yl)amino)methyl)bicyclo[1.1.1]pentan-1-yl)methoxy)-1,6-dimethylpyridin-2(1H)-one]"
5,300 to 1000,"Nc1nccc2c(NCC34CC(COc5ccn6cnnc6c5)(C3)C4)cccc12 [Example 1135, N5-((3-(([1,2,4]triazolo[4,3-a]pyridin-7-yloxy)methyl)bicyclo[1.1.1]pentan-1-yl)methyl)isoquinoline-1,5-diamine]"
6,3000 to 10000,"Nc1nccc2c(NCC34CC(COc5cc6nccn6cn5)(CO3)C4)cccc12 [Example 6623, N5-((4-((imidazo[1,2-c]pyrimidin-7-yloxy)methyl)-2-oxabicyclo[2.1.1]hexan-1-yl)methyl)isoquinoline-1,5-diamine]"
7,300 to 1000,"Nc1nccc2c(NCC34CC(COc5ccc6ncc(F)n6c5)(CO3)C4)cccc12 [Example 6625, N5-((4-(((3-fluoroimidazo[1,2-a]pyridin-6-yl)oxy)methyl)-2-oxabicyclo[2.1.1]hexan-1-yl)methyl)isoquinoline-1,5-diamine]"
8,100 to 300,"Nc1nccc2c(NCC34CC(COc5cc(C(F)(F)F)c6nccn6c5)(CO3)C4)cccc12 [Example 6630, N5-((4-(((8-(trifluoromethyl)imidazo[1,2-a]pyridin-6-yl)oxy)methyl)-2-oxabicyclo[2.1.1]hexan-1-yl)methyl)isoquinoline-1,5-diamine]"
9,100 to 300,"COc1cc(OCC23COC(CNc4cccc5c(N)nccc45)(C2)C3)cn2ccnc12 [Example 6631, N5-((4-(((8-methoxyimidazo[1,2-a]pyridin-6-yl)oxy)methyl)-2-oxabicyclo[2.1.1]hexan-1-yl)methyl)isoquinoline-1,5-diamine]"
10,100 to 300,"Cc1cn2cc(OCC34COC(CNc5cccc6c(N)nccc56)(C3)C4)ccc2n1 [Example 6633, N5-((4-(((2-methylimidazo[1,2-a]pyridin-6-yl)oxy)methyl)-2-oxabicyclo[2.1.1]hexan-1-yl)methyl)isoquinoline-1,5-diamine]"
11,1000 to 3000,"Nc1nccc2c(NCC34CC(COc5ccc6nncn6c5)(CO3)C4)cccc12 [Example 6634, N5-((4-(([1,2,4]triazolo[4,3-a]pyridin-6-yloxy)methyl)-2-oxabicyclo[2.1.1]hexan-1-yl)methyl)isoquinoline-1,5-diamine]"
12,10000 to 40000,"Nc1nccc2c(NCC34CC(CN5C(=O)c6ccc(O)cc6C5=O)(CO3)C4)cccc12 [Example 6635, 2-((1-(((1-aminoisoquinolin-5-yl)amino)methyl)-2-oxabicyclo[2.1.1]hexan-4-yl)methyl)-5-hydroxyisoindoline-1,3-dione]"
13,3000 to 10000,"Nc1nccc2c(NCC34CC(COc5ccc6c(c5)C(=O)NC6=O)(CO3)C4)cccc12 [Example 6636, 5-((1-(((1-aminoisoquinolin-5-yl)amino)methyl)-2-oxabicyclo[2.1.1]hexan-4-yl)methoxy)isoindoline-1,3-dione]"
14,100 to 300,"Nc1nccc2c(NCC34CC(COc5ccc6c(c5)CCNC6=O)(CO3)C4)cccc12 [Example 6637, 6-((1-(((1-aminoisoquinolin-5-yl)amino)methyl)-2-oxabicyclo[2.1.1]hexan-4-yl)methoxy)-3,4-dihydroisoquinolin-1(2H)-one]"
15,1000 to 3000,"Nc1nccc2c(NCC34CC(COc5ccc6nncn6n5)(CO3)C4)cccc12 [Example 6638, N5-((4-(([1,2,4]triazolo[4,3-b]pyridazin-6-yloxy)methyl)-2-oxabicyclo[2.1.1]hexan-1-yl)methyl)isoquinoline-1,5-diamine]"
16,10 to 100,"Nc1nccc2c(NCC34CC(COc5ccc6ncc(C7CC7)n6c5)(CO3)C4)cccc12 [Example 6639, N5-((4-(((3-cyclopropylimidazo[1,2-a]pyridin-6-yl)oxy)methyl)-2-oxabicyclo[2.1.1]hexan-1-yl)methyl)isoquinoline-1,5-diamine]"
17,100 to 300,"CN1CCc2cc(OCC34COC(CNc5cccc6c(N)nccc56)(C3)C4)ccc2C1=O [Example 6640, 6-((1-(((1-aminoisoquinolin-5-yl)amino)methyl)-2-oxabicyclo[2.1.1]hexan-4-yl)methoxy)-2-methyl-3,4-dihydroisoquinolin-1(2H)-one]"
18,100 to 300,"CC(C)c1cc(OCC23COC(CNc4cccc5c(N)nccc45)(C2)C3)cn2ccnc12 [Example 6641, N5-((4-(((8-isopropylimidazo[1,2-a]pyridin-6-yl)oxy)methyl)-2-oxabicyclo[2.1.1]hexan-1-yl)methyl)isoquinoline-1,5-diamine]"
19,100 to 300,"Nc1nccc2c(NCC34CC(COc5ccc6c(c5)C(=O)NC6)(CO3)C4)cccc12 [Example 6642, 6-((1-(((1-aminoisoquinolin-5-yl)amino)methyl)-2-oxabicyclo[2.1.1]hexan-4-yl)methoxy)isoindolin-1-one]"
20,300 to 1000,"Cn1ccc2cc(OCC34COC(CNc5cccc6c(N)nccc56)(C3)C4)ccc2c1=O [Example 6643, 6-((1-(((1-aminoisoquinolin-5-yl)amino)methyl)-2-oxabicyclo[2.1.1]hexan-4-yl)methoxy)-2-methylisoquinolin-1(2H)-one]"
21,300 to 1000,"Nc1nccc2c(NCC34CC(COc5ccc6ncc(C(F)F)n6c5)(CO3)C4)cccc12 [Example 6644, 5-N-[[4-[[3-(Difluoromethyl)imidazo[1,2-a]pyridin-6-yl]oxymethyl]-2-oxabicyclo[2.1.1]hexan-1-yl]methyl]isoquinoline-1,5-diamine]"
22,10000 to 40000,"Nc1nccc2c(NCC34CC(Cn5cccn5)(CO3)C4)cccc12 [Example 6645, N5-((4-((1H-pyrazol-1-yl)methyl)-2-oxabicyclo[2.1.1]hexan-1-yl)methyl)isoquinoline-1,5-diamine]"
23,40000 to 100000,"Nc1nccc2c(NCC34CC(Cn5ccnc5)(CO3)C4)cccc12 [Example 6646, N5-((4-((1H-imidazol-1-yl)methyl)-2-oxabicyclo[2.1.1]hexan-1-yl)methyl)isoquinoline-1,5-diamine]"
24,40000 to 100000,"Nc1nccc2c(NCC34CC(Cn5nccn5)(CO3)C4)cccc12 [Example 6647, N5-((4-((2H-1,2,3-triazol-2-yl)methyl)-2-oxabicyclo[2.1.1]hexan-1-yl)methyl)isoquinoline-1,5-diamine]"
25,10000 to 40000,"Nc1nccc2c(NCC34CC(Cn5ccnn5)(CO3)C4)cccc12 [Example 6648, N5-((4-((1H-1,2,3-triazol-1-yl)methyl)-2-oxabicyclo[2.1.1]hexan-1-yl)methyl)isoquinoline-1,5-diamine]"
26,10000 to 40000,"Nc1nccc2c(NCC34CC(CN5CCCC5=O)(CO3)C4)cccc12 [Example 6649, 1-((1-(((1-aminoisoquinolin-5-yl)amino)methyl)-2-oxabicyclo[2.1.1]hexan-4-yl)methyl)pyrrolidin-2-one]"
27,100 to 300,"CC1(C)NC(=O)c2ccc(OCC34COC(CNc5cccc6c(N)nccc56)(C3)C4)cc21 [Example 6650, 5-((1-(((1-aminoisoquinolin-5-yl)amino)methyl)-2-oxabicyclo[2.1.1]hexan-4-yl)methoxy)-3,3-dimethylisoindolin-1-one]"
28,300 to 1000,"Nc1nccc2c(NCC34CC(COc5cccc(N6CCCC6=O)c5)(CO3)C4)cccc12 [Example 6653, 1-(3-((1-(((1-aminoisoquinolin-5-yl)amino)methyl)-2-oxabicyclo[2.1.1]hexan-4-yl)methoxy)phenyl)pyrrolidin-2-one]"
29,10000 to 40000,"Nc1nccc2c(NCC34CC(COc5ccccc5N5CCCC5=O)(CO3)C4)cccc12 [Example 6654, 1-(2-((1-(((1-aminoisoquinolin-5-yl)amino)methyl)-2-oxabicyclo[2.1.1]hexan-4-yl)methoxy)phenyl)pyrrolidin-2-one]"
